Measurements from US9000125B2, “Approach to treat intraocular hypertension” (priority 2006, dated 2015).
No end group written: not given here.

Tested on: intraocular pressure (IOP) of the rabbit eye
Test: IOP (TonoPen) in anaesthetized normal NZW rabbits after deposition/injection beneath the Tenon's capsule
Conditions: Example 9; 50 or 100 μg below the Tenon's capsule

CHSKTR [CHSKTR]
local or systemic side effects: without inducing any local or systemic side effects
